According to publication PMC5218480 (PLoS ONE, 2017):

Tested on: MV-4-11 cells
Assay: Gene expression microarray analysis (Affymetrix PrimeView) and GSEA
Assay type: cell-based, human
Set-up: RFU PODN (11730768_x_at) / Fold change /veh PODN (11730768_x_at) / RFU LINC00158 (11744669_a_at) / Fold change /veh LINC00158 (11744669_a_at) / RFU DUSP10 (11751237_a_at) / Fold change /veh DUSP10 (11751237_a_at) / RFU ID3 (11757404_x_at) / Fold change /veh ID3 (11757404_x_at) / RFU PLEKHG5 (11737974_s_at) / Fold change /veh PLEKHG5 (11737974_s_at) / RFU LRRC4B (11730491_at) / Fold change /veh LRRC4B (11730491_at) / RFU GIMAP4 (11747438_a_at) / Fold change /veh GIMAP4 (11747438_a_at) / RFU KRT8 (11758183_x_at) / Fold change /veh KRT8 (11758183_x_at) / RFU CNN1 (11734310_a_at) / Fold change /veh CNN1 (11734310_a_at) / RFU VPS37D (11726825_at) / Fold change /veh VPS37D (11726825_at) / RFU C10orf10 (11716522_x_at) / Fold change /veh C10orf10 (11716522_x_at) / RFU KIR2DL2 /// KIR2DL4 /// KIR2DL5A /// KIR2DL5B /// KIR2DS1 /// KIR2DS2 /// KIR2DS3 /// KIR2DS4 /// KIR3DL3 /// KIR3DL3 /// KIR3DS1 (11738374_at) / Fold change /veh KIR2DL2 /// KIR2DL4 /// KIR2DL5A /// KIR2DL5B /// KIR2DS1 /// KIR2DS2 /// KIR2DS3 /// KIR2DS4 /// KIR3DL3 /// KIR3DL3 /// KIR3DS1 (11738374_at) / RFU C1QL1 (11718748_at) / Fold change /veh C1QL1 (11718748_at) / RFU TMPRSS4 (11747572_a_at) / Fold change /veh TMPRSS4 (11747572_a_at) / RFU HAMP (11756126_x_at) / Fold change /veh HAMP (11756126_x_at) / RFU RNFT2 (11725882_a_at) / Fold change /veh RNFT2 (11725882_a_at) / RFU NR4A2 (11747474_a_at) / Fold change /veh NR4A2 (11747474_a_at) / RFU ABCC12 (11746883_a_at) / Fold change /veh ABCC12 (11746883_a_at) / RFU TMEM136 (11760407_x_at) / Fold change /veh TMEM136 (11760407_x_at) / RFU CLDN22 /// WWC2 (11732394_at) / Fold change /veh CLDN22 /// WWC2 (11732394_at) / RFU HLA-DPB1 (11760878_x_at) / Fold change /veh HLA-DPB1 (11760878_x_at) / RFU SPINT1 (11716480_a_at) / Fold change /veh SPINT1 (11716480_a_at) / RFU GAP43 (11754022_s_at) / Fold change /veh GAP43 (11754022_s_at) / RFU A4GNT (11735810_at) / Fold change /veh A4GNT (11735810_at) / RFU PRB3 (11715151_x_at) / Fold change /veh PRB3 (11715151_x_at) / RFU TUBB4B (11761932_at) / Fold change /veh TUBB4B (11761932_at) / RFU CAPN14 (11732068_a_at) / Fold change /veh CAPN14 (11732068_a_at) / RFU TMCC2 (11721928_a_at) / Fold change /veh TMCC2 (11721928_a_at) / RFU IRGQ (11745062_a_at) / Fold change /veh IRGQ (11745062_a_at) / RFU FAM174B (11720279_a_at) / Fold change /veh FAM174B (11720279_a_at) / RFU TMPRSS4 (11748680_a_at) / Fold change /veh TMPRSS4 (11748680_a_at) / RFU FAM212B (11763350_a_at) / Fold change /veh FAM212B (11763350_a_at) / RFU PLEKHG5 (11743358_a_at) / Fold change /veh PLEKHG5 (11743358_a_at) / RFU ZSCAN30 (11745921_a_at) / Fold change /veh ZSCAN30 (11745921_a_at) / RFU CMKLR1 (11741424_a_at) / Fold change /veh CMKLR1 (11741424_a_at) / RFU LOC101060620 /// MAPK8IP1 (11723275_at) / Fold change /veh LOC101060620 /// MAPK8IP1 (11723275_at) / RFU SPTSSB (11747773_x_at) / Fold change /veh SPTSSB (11747773_x_at) / RFU PRSS12 (11739890_at) / Fold change /veh PRSS12 (11739890_at) / RFU BIN1 (11741810_x_at) / Fold change /veh BIN1 (11741810_x_at) / RFU WNT11 (11732464_a_at) / Fold change /veh WNT11 (11732464_a_at) / RFU C10orf10 (11716521_a_at) / Fold change /veh C10orf10 (11716521_a_at) / RFU C5orf56 (11738089_at) / Fold change /veh C5orf56 (11738089_at) / RFU CYB561 (11721691_x_at) / Fold change /veh CYB561 (11721691_x_at) / RFU ANKRD19P (11752326_a_at) / Fold change /veh ANKRD19P (11752326_a_at) / RFU OR2T12 /// OR2T33 /// OR2T8 (11738714_s_at) / Fold change /veh OR2T12 /// OR2T33 /// OR2T8 (11738714_s_at) / RFU VCAN (11748164_a_at) / Fold change /veh VCAN (11748164_a_at) / RFU JSRP1 (11732532_at) / Fold change /veh JSRP1 (11732532_at) / RFU KRTAP10-11 (11738290_x_at) / Fold change /veh KRTAP10-11 (11738290_x_at) / RFU MYO3A (11730013_a_at) / Fold change /veh MYO3A (11730013_a_at) / RFU EBF3 (11725865_a_at) / Fold change /veh EBF3 (11725865_a_at) / RFU CAMK2N1 (11719241_x_at) / Fold change /veh CAMK2N1 (11719241_x_at) / RFU C5orf56 (11738088_a_at) / Fold change /veh C5orf56 (11738088_a_at) / RFU OLFML3 (11715873_a_at) / Fold change /veh OLFML3 (11715873_a_at) / RFU LOC100653217 /// NTM (11731650_a_at) / Fold change /veh LOC100653217 /// NTM (11731650_a_at) / RFU MAPK11 (11762145_a_at) / Fold change /veh MAPK11 (11762145_a_at) / RFU FIZ1 (11724087_x_at) / Fold change /veh FIZ1 (11724087_x_at) / RFU OASL (11726364_x_at) / Fold change /veh OASL (11726364_x_at) / RFU SOX15 (11748057_x_at) / Fold change /veh SOX15 (11748057_x_at) / RFU CD79A (11719716_a_at) / Fold change /veh CD79A (11719716_a_at) / RFU HIST1H1D (11736915_at) / Fold change /veh HIST1H1D (11736915_at) / RFU CASKIN2 (11723855_a_at) / Fold change /veh CASKIN2 (11723855_a_at) / RFU LOC730098 (11760151_x_at) / Fold change /veh LOC730098 (11760151_x_at) / RFU OR4N2 (11742367_at) / Fold change /veh OR4N2 (11742367_at) / RFU PRRT2 (11749266_a_at) / Fold change /veh PRRT2 (11749266_a_at) / RFU SNX32 (11753110_a_at) / Fold change /veh SNX32 (11753110_a_at) / RFU CDHR5 (11726645_a_at) / Fold change /veh CDHR5 (11726645_a_at) / RFU RCAN1 (11760418_a_at) / Fold change /veh RCAN1 (11760418_a_at) / RFU FAM167A (11723789_a_at) / Fold change /veh FAM167A (11723789_a_at) / RFU FAM26E (11764081_at) / Fold change /veh FAM26E (11764081_at) / RFU ISYNA1 (11749810_s_at) / Fold change /veh ISYNA1 (11749810_s_at) / RFU ACY1 (11761880_at) / Fold change /veh ACY1 (11761880_at) / RFU 11764098_at / Fold change /veh 11764098_at / RFU SAMD14 (11745864_x_at) / Fold change /veh SAMD14 (11745864_x_at) / RFU NPB (11741838_a_at) / Fold change /veh NPB (11741838_a_at) / RFU TMPRSS6 (11731388_a_at) / Fold change /veh TMPRSS6 (11731388_a_at) / RFU KRTAP10-2 (11738614_at) / Fold change /veh KRTAP10-2 (11738614_at) / RFU ARHGAP8 /// PRR5-ARHGAP8 (11727945_x_at) / Fold change /veh ARHGAP8 /// PRR5-ARHGAP8 (11727945_x_at) / RFU KRTAP5-7 /// NADSYN1 (11734609_at) / Fold change /veh KRTAP5-7 /// NADSYN1 (11734609_at) / RFU RASL12 (11751679_a_at) / Fold change /veh RASL12 (11751679_a_at) / RFU CDKN2B (11736163_a_at) / Fold change /veh CDKN2B (11736163_a_at) / RFU PRF1 (11729649_at) / Fold change /veh PRF1 (11729649_at) / RFU, ZNF638 /// ZNF638-IT1 / Fold change vs veh, ZNF638 /// ZNF638-IT1 / RFU, PANK3 / Fold change vs veh, PANK3 / RFU, SH3YL1 / Fold change vs veh, SH3YL1 / RFU, ZEB2 / Fold change vs veh, ZEB2 / RFU, NRIP1 / Fold change vs veh, NRIP1 / RFU, PTTG1IP / Fold change vs veh, PTTG1IP / RFU, CAPN2 / Fold change vs veh, CAPN2 / RFU, MED14 / Fold change vs veh, MED14 / RFU, SNORA58 / Fold change vs veh, SNORA58 / RFU, C1orf63 / Fold change vs veh, C1orf63 / RFU, LRRFIP1 / Fold change vs veh, LRRFIP1 / RFU, NDUFAF7 / Fold change vs veh, NDUFAF7 / RFU, SLC12A2 / Fold change vs veh, SLC12A2 / RFU, IBTK / Fold change vs veh, IBTK / RFU, ESF1 / Fold change vs veh, ESF1 / Fold change vs veh, TMEM50B / RFU, TAOK1 / Fold change vs veh, TAOK1 / RFU, ACBD3 / Fold change vs veh, ACBD3 / RFU, TMA16 / Fold change vs veh, TMA16 / RFU, RWDD3 / Fold change vs veh, RWDD3 / RFU, BCAT1 / Fold change vs veh, BCAT1 / RFU, EDEM3 / Fold change vs veh, EDEM3 / RFU, TMEM33 / Fold change vs veh, TMEM33 / RFU, WDR75 / Fold change vs veh, WDR75 / RFU, AHCTF1 / Fold change vs veh, AHCTF1 / RFU, TFRC / Fold change vs veh, TFRC / RFU, ZDHHC17 / Fold change vs veh, ZDHHC17 / RFU, NOM1 / Fold change vs veh, NOM1 / RFU, ARL8B / Fold change vs veh, ARL8B / RFU, ZBTB11 / Fold change vs veh, ZBTB11 / RFU, TAMM41 / Fold change vs veh, TAMM41 / RFU, KIAA1704 /// LOC100996395 / Fold change vs veh, KIAA1704 /// LOC100996395 / RFU, ING1 / Fold change vs veh, ING1 / RFU, TRMT61B / Fold change vs veh, TRMT61B / RFU, FUBP3 / Fold change vs veh, FUBP3 / RFU, TP53 / Fold change vs veh, TP53 / RFU, TNKS2 / Fold change vs veh, TNKS2 / RFU, ZFP14 / Fold change vs veh, ZFP14 / RFU, ACTR2 / Fold change vs veh, ACTR2 / RFU, PPP3R1 / Fold change vs veh, PPP3R1 / RFU, PIK3R1 / Fold change vs veh, PIK3R1 / RFU, HNRNPA1 / Fold change vs veh, HNRNPA1 / RFU, RNF170 / Fold change vs veh, RNF170 / RFU, ZNF28 / Fold change vs veh, ZNF28 / RFU, RNGTT / Fold change vs veh, RNGTT / RFU, OGT / Fold change vs veh, OGT / RFU, BRD1 / Fold change vs veh, BRD1 / RFU, MARS / Fold change vs veh, MARS / RFU, ZNF655 / Fold change vs veh, ZNF655 / RFU, FAHD1 / Fold change vs veh, FAHD1 / RFU, BDP1 / Fold change vs veh, BDP1 / RFU, LRRCC1 / Fold change vs veh, LRRCC1 / RFU, ARID1A / Fold change vs veh, ARID1A / RFU, ZNF146 / Fold change vs veh, ZNF146 / RFU, ZNF330 / Fold change vs veh, ZNF330 / RFU, GPN3 / Fold change vs veh, GPN3 / RFU, C9orf123 / Fold change vs veh, C9orf123 / RFU, N4BP2L2 / Fold change vs veh, N4BP2L2 / RFU, ARFIP1 / Fold change vs veh, ARFIP1 / RFU, FAM179B / Fold change vs veh, FAM179B / RFU, BCL10 / Fold change vs veh, BCL10 / RFU, UHRF1BP1L / Fold change vs veh, UHRF1BP1L / RFU, BET1 / Fold change vs veh, BET1 / RFU, CNOT2 / Fold change vs veh, CNOT2 / RFU, ZNF268 / Fold change vs veh, ZNF268 / Fold change vs veh, ZNF507 / RFU, DGCR2 / Fold change vs veh, DGCR2 / RFU, WDSUB1 / Fold change vs veh, WDSUB1 / Fold change vs veh, HSP90B1 /// MIR3652 / RFU, ADSS / Fold change vs veh, ADSS / RFU, GK / Fold change vs veh, GK / RFU, ZNF148 / Fold change vs veh, ZNF148 / RFU, TAF9 / Fold change vs veh, TAF9 / RFU, SLC1A5 / Fold change vs veh, SLC1A5 / RFU, SLMO2 / Fold change vs veh, SLMO2 / RFU, ABCC4 / Fold change vs veh, ABCC4 / RFU, LOC101060439 /// RAP1B / Fold change vs veh, LOC101060439 /// RAP1B / RFU, RFX7 / Fold change vs veh, RFX7 / RFU, GTPBP10 / Fold change vs veh, GTPBP10 / RFU, CNEP1R1 / Fold change vs veh, CNEP1R1 / RFU, BIVM-ERCC5 /// ERCC5 / Fold change vs veh, BIVM-ERCC5 /// ERCC5 / RFU, ILF3 / Fold change vs veh, ILF3 / RFU 11762660_at / Fold change /veh 11762660_at / RFU VCAN (11757783_s_at) / Fold change /veh VCAN (11757783_s_at) / RFU DDX43 (11728927_at) / Fold change /veh DDX43 (11728927_at) / RFU KRT8 (11758188_x_at) / Fold change /veh KRT8 (11758188_x_at) / RFU NKD1 (11759106_at) / Fold change /veh NKD1 (11759106_at) / RFU SRD5A1 (11742802_a_at) / Fold change /veh SRD5A1 (11742802_a_at) / RFU TPSAB1 /// TPSB2 (11721975_s_at) / Fold change /veh TPSAB1 /// TPSB2 (11721975_s_at) / RFU GSTM3 (11746129_a_at) / Fold change /veh GSTM3 (11746129_a_at) / RFU IL23R (11737362_x_at) / Fold change /veh IL23R (11737362_x_at) / RFU TMEM51 (11727254_a_at) / Fold change /veh TMEM51 (11727254_a_at) / RFU PIWIL2 (11732686_x_at) / Fold change /veh PIWIL2 (11732686_x_at) / RFU ORM1 (11744905_x_at) / Fold change /veh ORM1 (11744905_x_at) / RFU CCDC152 (11743942_at) / Fold change /veh CCDC152 (11743942_at) / RFU ECM1 (11717891_a_at) / Fold change /veh ECM1 (11717891_a_at) / RFU IL23R (11748794_a_at) / Fold change /veh IL23R (11748794_a_at) / RFU TNFAIP8L3 (11732012_x_at) / Fold change /veh TNFAIP8L3 (11732012_x_at) / RFU MBOAT4 (11741988_at) / Fold change /veh MBOAT4 (11741988_at) / RFU 11764193_at / Fold change /veh 11764193_at / RFU TMEM53 (11763286_at) / Fold change /veh TMEM53 (11763286_at) / RFU MAGEB2 (11727129_at) / Fold change /veh MAGEB2 (11727129_at) / RFU TMEM200A (11744735_a_at) / Fold change /veh TMEM200A (11744735_a_at) / RFU CCDC152 (11751479_a_at) / Fold change /veh CCDC152 (11751479_a_at) / RFU FAM211A (11726209_a_at) / Fold change /veh FAM211A (11726209_a_at) / RFU RGS16 (11746705_a_at) / Fold change /veh RGS16 (11746705_a_at) / RFU VCAN (11755009_s_at) / Fold change /veh VCAN (11755009_s_at) / RFU RHOB (11743442_s_at) / Fold change /veh RHOB (11743442_s_at) / RFU RGS16 (11720943_a_at) / Fold change /veh RGS16 (11720943_a_at) / RFU RGS16 (11720944_at) / Fold change /veh RGS16 (11720944_at) / RFU, VPS4B / Fold change vs veh, VPS4B / RFU, CREB1 / Fold change vs veh, CREB1 / RFU, DNAJC13 / Fold change vs veh, DNAJC13 / RFU, GNAQ / Fold change vs veh, GNAQ / RFU, CDK5R1 / Fold change vs veh, CDK5R1 / RFU, ZRANB3 / Fold change vs veh, ZRANB3 / RFU, CUL4A / Fold change vs veh, CUL4A / RFU, CCNY / Fold change vs veh, CCNY / RFU, UFL1 / Fold change vs veh, UFL1 / RFU, COG3 / Fold change vs veh, COG3 / RFU, DIAPH2 / Fold change vs veh, DIAPH2 / RFU, SKA2 / Fold change vs veh, SKA2 / RFU, AFF3 / Fold change vs veh, AFF3 / RFU, LMF1 / Fold change vs veh, LMF1 / RFU, IPO11 / Fold change vs veh, IPO11 / RFU, DFFB / Fold change vs veh, DFFB / RFU, FOXP1 / Fold change vs veh, FOXP1 / RFU, CARD8 / Fold change vs veh, CARD8 / RFU, STRN3 / Fold change vs veh, STRN3 / RFU, ADK / Fold change vs veh, ADK / RFU, RASSF2 / Fold change vs veh, RASSF2 / RFU, WIPF1 / Fold change vs veh, WIPF1 / RFU, LARP1B / Fold change vs veh, LARP1B / RFU, RASA1 / Fold change vs veh, RASA1 / RFU, RB1 / Fold change vs veh, RB1 / RFU, PPFIA1 / Fold change vs veh, PPFIA1 / RFU, MAT2A / Fold change vs veh, MAT2A / RFU, CCT5 / Fold change vs veh, CCT5 / RFU, WDR92 / Fold change vs veh, WDR92 / RFU, CUX1 / Fold change vs veh, CUX1 / RFU, TTC7A / Fold change vs veh, TTC7A / RFU, TMEM135 / Fold change vs veh, TMEM135 / RFU, DEPTOR / Fold change vs veh, DEPTOR / RFU, CPM / Fold change vs veh, CPM / RFU, DNAJB6 / Fold change vs veh, DNAJB6 / RFU, CACNA2D3 / Fold change vs veh, CACNA2D3 / RFU, DTX4 / Fold change vs veh, DTX4 / RFU, TFCP2 / Fold change vs veh, TFCP2 / RFU, GMCL1 /// GMCL1P1 / Fold change vs veh, GMCL1 /// GMCL1P1 / RFU, AEBP2 / Fold change vs veh, AEBP2 / RFU, SNHG1 /// SNORD22 /// SNORD25 /// SNORD26 /// SNORD27 /// SNORD28 /// SNORD29 /// SNORD31 / Fold change vs veh, SNHG1 /// SNORD22 /// SNORD25 /// SNORD26 /// SNORD27 /// SNORD28 /// SNORD29 /// SNORD31 / Fold change (Aza/veh), C12orf56 (ProbeSet 11735607_a_at) / Fold change (ACY-1035/veh), C12orf56 (ProbeSet 11735607_a_at) / Fold change (Aza/veh), FGFR1OP (ProbeSet 11751329_s_at) / Fold change (ACY-1035/veh), FGFR1OP (ProbeSet 11751329_s_at) / Fold change (Aza/veh), VPS36 (ProbeSet 11739960_a_at) / Fold change (ACY-1035/veh), VPS36 (ProbeSet 11739960_a_at) / RFU SYPL1 (11715823_x_at) / Fold change /veh SYPL1 (11715823_x_at) / RFU IGFBP7 (11715501_s_at) / Fold change /veh IGFBP7 (11715501_s_at) / RFU REEP3 (11722064_at) / Fold change /veh REEP3 (11722064_at) / RFU IGLL1 (11728026_x_at) / Fold change /veh IGLL1 (11728026_x_at): dose or concentration left out as unconfirmed
Conditions: MV-4-11 cells, 48 hours

Nc1ccc(-c2cccs2)cc1NC(=O)c1ccc2c(c1)cc(C1CC1)n2CCN1CCOCC1 [ACY-1035]
Fold change /veh FAM211A (11726209_a_at): 1.04
